Experimental data reported in patent US9434724B2, “Quinuclidines for modulating alpha 7 activity” (priority 2014, dated 2016).
Like-named read-outs stand apart in the source and are kept apart here.

How the values were obtained:
[1] = target: rat brain nicotinic receptor (α7 NAChR) (Rattus norvegicus (Rat), UniProt Q05941); format: binding
[2] = Metabolic stability assay in human liver microsomes (HLM); format: in vitro ADME; details: 1 μM
In short: (§1)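 In Protocol 1, compound was 1 μM final with NADPH at 37 °C, sampled at 0–45 min. In Protocol 2, 1.5 μM compound with 0.75 mg/mL microsomes (pre-NADPH mix) in 0.1 M potassium phosphate, 1 mM EDTA, pH 7.4 was pre-incubated 10 min, then NADPH started the reaction. Both: LC-MS/MS % remaining versus time 0, half-life from single-phase exponential fit.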

[3] = Metabolic stability assay in rat liver microsomes (RLM); format: in vitro ADME; details: 1 μM
In short: as §1

[4] = Human plasma stability; format: in vitro ADME
In short: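 Protocol 1: 1 μM compound in pH 7.4 sodium-heparin human plasma at 37° C, sampled 0–120 min. Protocol 2: 5 μM in plasma at pH 7.4–8.0, 37° C, duplicates, sampled 0–120 min. Both: LC-MS/MS percent remaining versus t0; half-life from single-phase exponential decay.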

[5] = target: CYP3A4 (Homo sapiens (Human), UniProt P08684); assay: Cytochrome P450 inhibition in human liver microsomes, CYP3A4
Sequence of CYP3A4 (P08684 whole entry): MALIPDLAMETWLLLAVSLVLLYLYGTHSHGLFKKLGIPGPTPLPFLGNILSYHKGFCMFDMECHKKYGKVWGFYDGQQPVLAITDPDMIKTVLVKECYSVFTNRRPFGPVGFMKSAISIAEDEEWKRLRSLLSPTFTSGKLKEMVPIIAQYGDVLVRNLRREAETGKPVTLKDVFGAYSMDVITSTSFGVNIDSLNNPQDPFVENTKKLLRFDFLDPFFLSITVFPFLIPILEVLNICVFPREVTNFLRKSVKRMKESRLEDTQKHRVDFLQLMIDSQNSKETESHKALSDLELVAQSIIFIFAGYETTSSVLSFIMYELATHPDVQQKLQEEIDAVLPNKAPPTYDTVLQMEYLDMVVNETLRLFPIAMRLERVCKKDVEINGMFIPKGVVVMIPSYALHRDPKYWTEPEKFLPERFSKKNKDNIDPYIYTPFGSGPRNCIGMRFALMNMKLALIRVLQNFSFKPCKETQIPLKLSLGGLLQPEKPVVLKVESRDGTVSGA

[6] = target: CYP1A2 (Homo sapiens (Human), UniProt P05177); assay: Cytochrome P450 inhibition in human liver microsomes, CYP1A2
Sequence of CYP1A2 (P05177 whole entry): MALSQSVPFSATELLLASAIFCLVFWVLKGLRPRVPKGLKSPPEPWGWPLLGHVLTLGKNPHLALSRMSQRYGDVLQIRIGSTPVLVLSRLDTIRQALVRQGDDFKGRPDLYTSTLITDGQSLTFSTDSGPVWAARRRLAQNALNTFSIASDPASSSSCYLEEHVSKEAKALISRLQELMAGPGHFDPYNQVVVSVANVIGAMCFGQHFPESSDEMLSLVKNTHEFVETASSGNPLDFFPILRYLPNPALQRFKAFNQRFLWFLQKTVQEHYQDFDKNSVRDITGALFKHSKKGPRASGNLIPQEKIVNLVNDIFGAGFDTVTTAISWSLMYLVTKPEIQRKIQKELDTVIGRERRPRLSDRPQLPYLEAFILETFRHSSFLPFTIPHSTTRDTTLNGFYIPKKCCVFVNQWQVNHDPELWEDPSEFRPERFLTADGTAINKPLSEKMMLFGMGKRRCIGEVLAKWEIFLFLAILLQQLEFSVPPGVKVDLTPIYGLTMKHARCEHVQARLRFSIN

[7] = target: CYP2C9 (Homo sapiens (Human), UniProt P11712); assay: Cytochrome P450 inhibition in human liver microsomes, CYP2C9
Sequence of CYP2C9 (P11712 whole entry): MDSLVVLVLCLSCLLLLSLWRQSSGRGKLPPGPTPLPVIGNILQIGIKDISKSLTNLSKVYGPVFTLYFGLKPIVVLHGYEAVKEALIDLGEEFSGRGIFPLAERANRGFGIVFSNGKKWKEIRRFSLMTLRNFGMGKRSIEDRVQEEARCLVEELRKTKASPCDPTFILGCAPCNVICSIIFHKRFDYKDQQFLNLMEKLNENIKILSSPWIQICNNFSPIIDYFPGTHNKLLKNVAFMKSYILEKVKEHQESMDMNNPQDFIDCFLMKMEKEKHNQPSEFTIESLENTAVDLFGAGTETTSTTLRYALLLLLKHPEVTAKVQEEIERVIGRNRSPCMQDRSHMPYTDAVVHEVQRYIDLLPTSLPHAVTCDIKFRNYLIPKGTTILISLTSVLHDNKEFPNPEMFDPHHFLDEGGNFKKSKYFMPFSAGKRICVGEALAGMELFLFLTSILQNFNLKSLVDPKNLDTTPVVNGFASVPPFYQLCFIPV

[8] = target: CYP2D6 (Homo sapiens (Human), UniProt P10635); assay: Cytochrome P450 inhibition in human liver microsomes, CYP2D6
Sequence of CYP2D6 (P10635 whole entry): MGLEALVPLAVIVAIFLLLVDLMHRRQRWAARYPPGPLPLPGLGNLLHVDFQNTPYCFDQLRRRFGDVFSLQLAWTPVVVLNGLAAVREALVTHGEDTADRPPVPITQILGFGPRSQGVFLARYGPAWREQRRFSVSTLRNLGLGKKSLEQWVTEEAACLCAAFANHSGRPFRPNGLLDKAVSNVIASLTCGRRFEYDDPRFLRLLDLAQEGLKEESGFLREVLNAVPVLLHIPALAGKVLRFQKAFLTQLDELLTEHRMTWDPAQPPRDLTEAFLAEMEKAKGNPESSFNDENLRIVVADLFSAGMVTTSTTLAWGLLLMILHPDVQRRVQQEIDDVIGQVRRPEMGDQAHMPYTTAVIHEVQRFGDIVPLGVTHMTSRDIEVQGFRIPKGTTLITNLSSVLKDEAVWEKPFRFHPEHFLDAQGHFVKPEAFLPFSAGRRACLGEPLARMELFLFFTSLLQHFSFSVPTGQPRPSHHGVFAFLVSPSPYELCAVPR

[9] = target: T1, CYP2C19 (Homo sapiens (Human), UniProt P33261); assay: Cytochrome P450 inhibition in human liver microsomes, CYP2C19
T1 sequence (P33261 whole entry): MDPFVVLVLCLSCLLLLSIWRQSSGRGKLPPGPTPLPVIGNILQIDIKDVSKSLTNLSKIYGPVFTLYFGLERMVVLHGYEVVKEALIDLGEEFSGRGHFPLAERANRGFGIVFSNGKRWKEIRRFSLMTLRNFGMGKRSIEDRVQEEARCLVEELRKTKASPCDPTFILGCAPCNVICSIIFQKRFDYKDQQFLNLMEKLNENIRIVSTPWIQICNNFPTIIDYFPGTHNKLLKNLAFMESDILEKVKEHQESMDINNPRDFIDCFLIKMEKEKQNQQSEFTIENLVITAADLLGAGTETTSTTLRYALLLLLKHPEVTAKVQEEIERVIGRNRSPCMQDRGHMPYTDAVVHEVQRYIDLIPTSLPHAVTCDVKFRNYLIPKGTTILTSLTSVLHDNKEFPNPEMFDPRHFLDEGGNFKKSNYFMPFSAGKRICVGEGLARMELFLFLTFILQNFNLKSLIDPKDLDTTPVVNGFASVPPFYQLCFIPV

[10] = target: T1, CYP2C19; details: microsomes
[11] = Protocol No. 1, human liver microsomes
[12] = Protocol No. 1, rat liver microsomes
[13] = Protocol No. 2, plasma, 5 μM, 37° C.
[14] = read-out: 3A4 IC50 (Midazolam), substrate midazolam, Protocol 1
[15] = read-out: 3A4 IC50 (Testosterone), substrate testosterone, Protocol 1
[16] = read-out: 2C19 IC50, Protocol 1
[17] = Protocol No. 2, human liver microsomes
[18] = Protocol No. 2, rat liver microsomes
[19] = pH 7.4, Protocol No. 1, human plasma, 1 μM, 37° C., read-out: T1/2
[20] = read-out: 3A4 IC50 (Midazolam), substrate midazolam, Protocol 2
[21] = read-out: 2C19 IC50, Protocol 2

Sequence of rat brain nicotinic receptor (α7 NAChR) (Q05941 23-502 limits assumed): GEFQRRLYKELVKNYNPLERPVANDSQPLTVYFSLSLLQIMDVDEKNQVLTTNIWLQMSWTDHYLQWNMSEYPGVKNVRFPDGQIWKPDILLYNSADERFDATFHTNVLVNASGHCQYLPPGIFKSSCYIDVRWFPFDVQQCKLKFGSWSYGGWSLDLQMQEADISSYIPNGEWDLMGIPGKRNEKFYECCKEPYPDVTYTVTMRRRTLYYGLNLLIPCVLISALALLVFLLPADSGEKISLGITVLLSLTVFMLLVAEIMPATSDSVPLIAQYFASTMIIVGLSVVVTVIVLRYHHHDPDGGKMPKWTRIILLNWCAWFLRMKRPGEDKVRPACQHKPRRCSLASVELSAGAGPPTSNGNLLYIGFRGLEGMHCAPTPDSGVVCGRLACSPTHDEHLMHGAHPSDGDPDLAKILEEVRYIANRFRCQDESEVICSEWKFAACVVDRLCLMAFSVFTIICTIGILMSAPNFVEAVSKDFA

SMILES | IC50 [1] [µM] | Ki [1] [µM] | HLM [2, 11] [mL/min/kg] | RLM [3, 12] [mL/min/kg] | % Remaining @ 2 h [4, 13] [%] | IC50 [5, 14] [µM] | IC50 [5, 15] [µM] | IC50 ([6]; read-out: 1A2 IC50, Protocol 1) [µM] | IC50 ([7]; read-out: 2C9 IC50, Protocol 1) [µM] | IC50 ([8]; read-out: 2D6 IC50, Protocol 1) [µM] | IC50 [9, 16] [µM] | HLM [2, 17] [mL/min/kg] | RLM [3, 18] [mL/min/kg] | IC50 [5, 20] [µM] | IC50 ([6]; read-out: 1A2 IC50, Protocol 2) [µM] | IC50 ([7]; read-out: 2C9 IC50, Protocol 2) [µM] | IC50 ([8]; read-out: 2D6 IC50, Protocol 2) [µM] | IC50 [9, 21] [µM] | other results
Cl.O=C(OCC12CCN(CC1)CC2)c1c[nH]c2cc(O)c(F)cc12 [Compound 59, Quinuclidin-4-ylmethyl 5-fluoro-6-hydroxy-1H-indole-3-carboxylate hydrochloride] | 0.0701 | 0.0602 | 0 | 24.713 | 53.78 | > 10 | > 10 | > 10 | > 10 | > 10 | 20.9 |  |  |  |  |  |  |  | 
COc1cc(F)c2c(C(=O)OCC34CCN(CC3)CC4)c[nH]c2c1.Cl [Compound 33, Quinuclidin-4-ylmethyl 4-fluoro-6-methoxy-1H-indole-3-carboxylate hydrochloride] | 0.0496 | 0.0432 |  |  |  |  |  |  |  |  |  | <13.608 | 47.7 | > 10 | > 10 | > 10 | > 10 | > 10 | half-life at 1 μM [4, 19]: 17.6 min
Cc1ccc2c(C(=O)OCC34CCN(CC3)CC4)c[nH]c2c1.Cl [Compound 45, Quinuclidin-4-ylmethyl 6-methyl-1H-indole-3-carboxylate hydrochloride] | 0.0736 | 0.0631 | 2.976 | 170.981 | 47.32 | > 10 | > 10 | > 10 | > 10 | > 10 | > 10 |  |  |  |  |  |  |  | 
Cl.O=C(OCC12CCN(CC1)CC2)c1c[nH]c2cc(F)c(F)cc12 [Compound 51, Quinuclidin-4-ylmethyl 5,6-difluoro-1H-indole-3-carboxylate hydrochloride] | 0.662 | 0.568 | 1.004 | 716.882 | 79.3649 | > 10 | > 10 | > 10 | > 10 | > 10 | > 10 |  |  |  |  |  |  |  | 
O=C(OCC12CCN(CC1)CC2)c1c[nH]c2cc(O)ccc12 [Compound 14, quinuclidin-4-ylmethyl 6-hydroxy-1H-indole-3-carboxylate] | 0.0619 | 0.0537 |  |  |  |  |  |  |  |  |  |  |  |  | > 10 | > 10 | > 10 | > 10 | HLM ([2]; human, microsomes, pH 7.4): <13.608 mL/min/kg; RLM ([3]; rat, microsomes, pH 7.4): 25.92 mL/min/kg; % Remaining @ 2 h ([4]; human, plasma, 2 h, 1 μM, pH 7.4): 26%; half-life at 1 μM ([4]; human, plasma, pH 7.4): 65.6 min
Cl.O=C(OCC12CCN(CC1)CC2)c1c[nH]c2cc(OC(F)(F)F)ccc12 [Compound 29, Quinuclidin-4-ylmethyl 6-(trifluoromethoxy)-1H-indole-3-carboxylate hydrochloride] | 3.71 | 3.24 |  |  |  |  |  |  |  |  |  | <13.608 | 25.92 | > 10 | > 10 | > 10 | > 10 | > 10 | 
COc1cc2[nH]cc(C(=O)OCC34CCN(CC3)CC4)c2cc1F.Cl [Compound 32, Quinuclidin-4-ylmethyl 5-fluoro-6-methoxy-1H-indole-3-carboxylate hydrochloride] | 0.306 | 0.267 |  |  |  |  |  |  |  |  |  | <13.608 | 85.5 | > 10 | > 10 | > 10 | > 10 | > 10 | half-life at 1 μM [4, 19]: > 120 min
COc1ccc2[nH]cc(C(=O)OCC34CCN(CC3)CC4)c2c1OC [Compound 40, quinuclidin-4-ylmethyl 4,5-dimethoxy-1H-indole-3-carboxylate] | 0.0696 | 0.06 |  |  |  | > 10 | > 10 | > 10 |  |  |  |  |  |  |  |  |  |  | HLM ([2]; human, microsomes): 7.67 mL/min/kg; RLM ([3]; rat, microsomes): 49.42 mL/min/kg; T1/2 ([4]; human, plasma): ∞; % Remaining @ 2 h ([4]; human, plasma, 2 h, 5 μM): 106.8%; IC50 ([10]; 45 min): > 10 µM
COc1cc2c(C(=O)OCC34CCN(CC3)CC4)c[nH]c2cc1F [Compound 57, quinuclidin-4-ylmethyl 6-fluoro-5-methoxy-1H-indole-3-carboxylate] | 0.257 | 0.221 | 0 | 153.227 | 76.33 | > 10 | > 10 | > 10 | > 10 | > 10 | > 10 |  |  |  |  |  |  |  | 
O=C(OCC12CCN(CC1)CC2)c1c[nH]c2cc(O)cc(Br)c12 [Compound 53, quinuclidin-4-ylmethyl 4-bromo-6-hydroxy-1H-indole-3-carboxylate] | 0.0536 | 0.046 | 8.304 | 29.9085 | 95.5 | > 10 | > 10 | > 10 | > 10 | > 10 | > 10 |  |  |  |  |  |  |  | 
Cl.O=C(OCC12CCN(CC1)CC2)c1c[nH]c2cc3c(cc12)OCCO3 [Compound 30, Quinuclidin-4-ylmethyl 2,3-dihydro-6H-[1,4]dioxino[2,3-f]indole-8-carboxylate hydrochloride] | 0.0925 | 0.0811 |  |  |  |  |  |  |  |  |  | <13.608 | 55.98 | > 10 | > 10 | > 10 | > 10 | > 10 | % Remaining @ 2 h ([4]; Protocol No. 1, human plasma, 1 μM, 37° C.): 10%; half-life at 1 μM [4, 19]: 34.7 min
Cc1cccc2c(C(=O)OCC34CCN(CC3)CC4)c[nH]c12 [Compound 19, quinuclidin-4-ylmethyl 7-methyl-1H-indole-3-carboxylate] | 0.764 | 0.665 |  |  |  |  |  |  |  |  |  |  |  |  | > 10 |  | > 10 |  | HLM ([2]; human, microsomes, pH 7.4): <13.608 mL/min/kg; RLM ([3]; rat, microsomes, pH 7.4): 280.991 mL/min/kg; IC50 [10]: > 10 µM
Cl.O=C(OCC12CCN(CC1)CC2)c1c[nH]c2cc(OC(F)F)ccc12 [Compound 31, Quinuclidin-4-ylmethyl 6-(difluoromethoxy)-1H-indole-3-carboxylate hydrochloride] | 0.788 | 0.689 |  |  |  |  |  |  |  |  |  | <13.608 | 25.92 | > 10 | > 10 | > 10 | > 10 | > 10 | 
